These are literature values, as cited in patent US11512068B2, “Process for the preparation of crystalline ridinilazole using acid addition salts” (Sandoz AG, priority 2017, dated 2022).

The conditions of data set [1]: phase 1 trial, oral.
For data set [2], the system named is Clostridium difficile. Particulars: treatment with ridinilazole.
In data set [3] the test system is Clostridium difficile.
A further data set relates to clostridia. The settings on record: phase 1 trial, oral.

Molecules are shown by their SMILES.

For the molecule `c1cc(-c2nc3ccc(-c4ccc5nc(-c6ccncc6)[nH]c5c4)cc3[nH]2)ccn1` [Ridinilazole, 5,5′bis[2-(4-pyridinyl)-1H-benzimidazole]], the tolerability result in data set [1] is “well tolerated”. In the data set with Clostridium difficile [2], the toxin production result is given as “decreased toxin production”. Also, the post-antibiotic effect entry in the data set with Clostridium difficile [3] was “prolonged post-antibiotic effect”. The “selectivity for clostridia over other faecal bacteria” value in the data set with clostridia is recorded as “specifically targets clostridia whilst sparing other faecal bacteria”.
